The subject of this experiment is Malassezia furfur. Kind of experiment: ΣFIC assay against Malassezia furfur (checkerboard in-vitro susceptibility testing, alamar blue). The experiment is classed as cell-based, M. furfur (CBS 1878). As for the experimental part: A brief description of the method is given below.
Methods: ΣFIC Assay Against Malassezia furfur
They are then incubated at 32° C. for 48 hrs with shaking. Then, 1 ml of the first broth culture is transferred into 9 ml of fresh PB and incubated at 32° C. for 48 hrs with shaking. The final culture should contain 2 to 6×10^6 cells/ml. This is achieved by diluting using PB to 5*10^6 cell/ml.
The piperazine compound was serially diluted (2-fold) to prepare in a range of 10-10,000 ppm in growth medium.
Binary combinations of ZPTO and the testing compound were prepared in 96-well plate by mixing 20 μl of zinc pyrithione solution with 20 μl of testing compound. The solution in each well were further mixed with 160 μl of PB and 20 μl of M. furfur. The final cell density in the testing plate is around 5*10^4 cell/ml, and the final concentration of actives in each well of the 96-well plate were shown below.
The plate was incubated at 32° C. for one day. Then 20 μl of alamar blue (0.01%) was added into each well with a further incubation for one day to observe the color change. Red color indicates microbial growth and the non-changing blue color indicates no growth.
The MIC is defined as the absolute lowest concentration of active that provides complete microbial growth inhibition as indicated by the blue color of alamar blue under the tested condition.
The differing behaviours of inhibitory antimicrobials in isolation and mixtures have been widely explored using the concept of the Fractional Concentration (FC) and Fractional Inhibitory Concentration (FIC). The parameter can be defined as follows: […]
The interactions between antimicrobials can be additive, synergistic or antagonistic depending on whether the efficacy of the combination is equivalent to, greater than or less than that obtained for the same total concentration of the individual components when tested alone.
These relationships can be expressed mathematically by summing the fractional MIC values for all the components present in the mixture to give the “fractional inhibition index”. There is no consistent approach in the academic or patent literature in defining precise limiting ΣFIC values that differentiate synergy from additivity or antagonism. In this study, we have adopted a liberal approach defining any binary mixture with ΣFIC<0.9 as showing evidence of synergistic behavior.
ΣFIC=FIC (component 1)+FIC (component 2)
ΣFIC=1 corresponds to additive bactericidal activity
ΣFIC>1 corresponds to antagonistic bactericidal activity
ΣFIC<0.9 corresponds to synergistic bactericidal activity

Setting [1] is: CBS1878, active alone, M. furfur CBS 1878 in Pityrosporum Broth, 32° C., complete growth inhibition by alamar blue, read-out: Minimum Inhibition Concentration (MIC).
[2] abbreviates: CBS1878, read-out: Minimum Inhibition Concentration (MIC).

Structures are written as SMILES. Counter-ions that a name gives are not always drawn. Like-named read-outs stand apart in the source and are kept apart here.

In patent US10617621B2, “Antimicrobial composition” (Conopco, Inc., priority 2016, dated 2020) one finds MIC data, which are given here for five compounds.

Consider `O=C(c1ccccc1F)N1CCN(C2CCC(c3ccccc3)CC2)CC1` (centres unmarked) [1-(2-fluorobenzoyl)-4-(4-phenylcylcohexyl)piperazine], for which the MIC under setting [1] amounted to 100 µg/mL. Turning to `CCc1ccc(CN2CCN(Cc3cccc(Cl)c3)CC2)cc1` [1-(3-chlorobenzyl)-4-(4-ethylbenzyl)piperazine oxalate], the MIC under setting [2] is more than 1000 µg/mL. Regarding `CCc1ccc(CN2CCN(C3CCC(C)CC3)CC2)cc1` (centres unmarked) [1-(4-ethylbenzyl)-4-(4-methylcyclohexyl)piperazine oxalate], the MIC under setting [2] came out at 125 µg/mL. For `CC(C)C(=O)N1CCN(c2ccc(F)cc2)CC1` [1-(4-fluorophenyl)-4-isobutyrylpiperazine], the MIC under setting [1] is more than 1000 µg/mL.

In the case of `CC(C)C(=O)N1CCN(c2ccccc2)CC1` [1-isobutyryl-4-phenylpiperazine], the MIC under setting [1] is more than 1000 µg/mL.
